Laboratory results as given in ChEMBL document CHEMBL2057158, “Synthesis and cytotoxic activity of 4-N-carboxybutyl-5-fluorocytosyl-Arg-Gln-Trp-Arg-Arg-Trp-Trp-Gln-Arg-NH₂” (Bioorg Med Chem Lett, 2012).
Calls of active or inactive are those of the source.

Experiments:
Format in all cases: functional, cell-based
[1] = test system: HepG2; assay: Cytotoxicity in human HepG2 cells assessed as alteration of mitochondrial membrane potential by TMRM-fluorescence based high content screening assay
[2] = test system: HepG2; assay: Induction of apoptosis in human HepG2 cells assessed as morphological nuclear changes by Hoechst33342-staining based high content screening assay
[3] = test system: HepG2; assay: Cytotoxicity in human HepG2 cells assessed as elevation of intracellular calcium concentration by Fluo4AM-fluorescence based high content screening assay
[4] = test system: HepG2; assay: Cytotoxicity against human HepG2 cells at 4 to 10 mM after 24 hrs by MTT assay

Measured: Activity

Nc1nc(=O)[nH]cc1F
inactive: [1] | [2] | [3] | [4]
